Assay results: patent EP1149092B1, “4- AND 5-ALKYNYLOXINDOLES AND 4- AND 5-ALKENYLOXINDOLES” (F. HOFFMANN-LA ROCHE AG, priority 1998, dated 2000)

Key:
[1] = molecular target: rat SAPK (isoform β) (Rattus norvegicus, UniProt P49187); test: SAPK FlashPlate Assay (inhibition of cJun phosphorylation); format: biochemical; conditions: GST-cJun substrate, 30 minutes at 37 °C
Description: "IC50" refers to the concentration of a particular 4- or 5-alkynyloxindole or 4-or 5-alkenyloxindole required to inhibit 50% of cJun phosphorylation, which is a measure of inhibition of SAPK activity. IC50 can be measured, inter alia, using the assay described herein in Example 102.
Human JNK is highly homologous to rat SAPK. To measure the inhibitory activity of test compounds, the compounds were tested in the rat SAPK assay.
For the SAPK assay, purified GST-cJun (a chimeric protein containing cJun, a natural substrate of JNK) was coated on 96 well FlashPlates (New England Nuclear, Boston, MA). Purified rat SAPK (isoform β, Kyriakis et al. supra) was preincubated with preparations containing MEKK-1 and MKK4 for 30 minutes at 37 °C in assay buffer containing 25 mM HEPES, pH 7.5, 150 mM NaCl, 20 mM MgCl2, 2 mM DTT, 0.001% Tween 20, 1 µM ATP freshly added. In the preincubation step, MEKK-1 phosphorylates and activates MKK-4, which in tum phosphorylates and activates SAPK. The activated SAPK was then added to the cJun coated FlashPlates along with ^33P-ATP (0.32 µCi per reaction) and test compounds. The plates were incubated for 30 minutes at 37 °C, then washed with PBS, 0.01% Tween 20, and counted in the Topcount scintillation counter (Packard Instrument Co., Downers Grove, IL). Dilutions of compounds were tested in duplicate in each assay. The percent inhibition of cJun phosphorylation (a measure of inhibition of SAPK activity) was determined by the following formula: [formula] where "test compound" refers to the average counts per minute of the test duplicates, "nonspecific" refers to the average counts per minute when no SAPK was added, and "total" refers to the average counts per minute when no compound was added.

[2] = system: TNF; test: U937 Cell-Based Assay, TNF release after LPS stimulation (ELISA); conditions: Homo sapiens, U-937; U937 cells, PMA then LPS stimulated, 24 hours
Description: (§1) The U937 cells, a human monocyte/macrophage cell line, was obtained from the ATTC and grown in the recommended medium. These cells when stimulated with lipopolysaccharide (LPS) release TNF, another inflammatory mediator implicated in the JNK pathway (Swantek et al., supra) and IL-6. In this assay the ability of a test compound to block TNF expression is evaluated.
(§2) The assay is very similar to the MG63 cell based assay except for the following modifications. The U937 cells were suspension cells but when stimulated with phorbol myristate acetate (PMA) (Sigma, St. Louis, MO) they become adherent. After PMA stimulation the cells were washed in cell culture medium and plated at 1X10^5 cells/well in 96 well plates. The following day the test compounds and dexamethasone control (Sigma, St. Louis, MO) were added to the cells for 1 hour of preincubation. Then the cells were stimulated with LPS (Sigma, St. Louis, MO). After an additional 24 hours of incubation the supematants were removed and assayed for TNF-α and IL-6 by ELISA. The IL-6 ELISA was run as described previously for the MG63 assay. The TNF ELISA was run using a kit supplied by Genzyme (Cambridge, MA).

[3] = system: MMP-3; test: MG-63 Cell-Based Assay, MMP-3 release after IL-1β stimulation (ELISA); conditions: Homo sapiens, MG63 cells, IL-1β stimulated, 24 hours with compound, read-out: IC50 (µM) in MG63 Cells MMP3
Text: (§3) The MG63 cell line, a human osteosarcoma cell line, was purchased from American Type Culture Collection (ATCC; Rockville, MD) and grown in the medium recommended by ATCC. When stimulated with human IL-1β , MG63 cells release matrix metalloproteinase 3 (MMP-3), an AP-1 dependent inflammatory mediator and IL-6, a NF-κB-dependent mediator. In this assay the ability of a test compound to block MMP-3 expression and not block IL-6 expression is an indication that the compound is a selective inhibitor of the AP-1 transcription pathway.
(§4) On day 1 the cells were plated at 2.5X10^4 cells/well in 96 well plates. After 24 hours, dexamethasone (the assay control) (Sigma, St. Louis, MO) and the test compounds were diluted to appropriate concentrations and added to the MG63 cells. The cells were incubated with the compounds for 24 hours after which the supernatants were removed and analyzed by ELISA.
(§5) In the ELISA, 96 well plates were coated with antibody to MMP-3 or IL-6. Supernatants were added to the coated plates and any antigen (MMP-3 or IL-6) in the supernatant bound to the antibody coated on the plates. The plates were then washed with PBS containing 0.05% Tween 20 (Sigma, St. Louis, MO) and the biotinylated secondary antibody was added. This secondary antibody binds to the already bound antigen creating a "sandwich effect". Plates were washed as described above and horseradish peroxidase (HRP)-streptavidin conjugate (Sigma, St. Louis, MO) was added to the plates. HRP-streptavidin bound to the biotin-antibody conjugate. The plates were washed and TMB substrate (Kirkegaard and Perry Labs, Gaithersburg, MD) was added to the wells. This substrate changes color in the presence of HRP-streptavidin. The intensity of the color (measured at 450 nm) is proportional to the amount of MMP-3 or IL-6 produced by the MG63 cells upon exposure to IL-1β and the test compounds. Optical density values were converted to concentration (pg/ml or Units/ml) based on a standard curve included in the assay. IC50 values for each test compound were determined from the linear regression of a plot of the logarithm of the concentration of compound versus amount of MMP-3 or IL-6 secreted. (The MMP-3 antibodies were prepared in-house using standard hybridoma technology and the IL-6 antibodies were obtained from either Genzyme, Cambridge, MA or Pharmingen, San Diego, CA.).

[4] = system: IL-6; test: MG-63 Cell-Based Assay, IL-6 release after IL-1β stimulation (ELISA); conditions: Homo sapiens, MG63 cells, IL-1β stimulated, 24 hours with compound, read-out: IC50 (µM) in MG63 Cells IL6
Text: as §3, §4, §5

[5] = system: IL-6; test: U937 Cell-Based Assay, IL-6 release after LPS stimulation (ELISA); conditions: Homo sapiens, U-937; U937 cells, PMA then LPS stimulated, 24 hours; read-out: IC50 (µM) in U937 Cells IL6
Description: as §1, §2

Sequence of rat SAPK (isoform β) (P49187 whole entry, canonical isoform): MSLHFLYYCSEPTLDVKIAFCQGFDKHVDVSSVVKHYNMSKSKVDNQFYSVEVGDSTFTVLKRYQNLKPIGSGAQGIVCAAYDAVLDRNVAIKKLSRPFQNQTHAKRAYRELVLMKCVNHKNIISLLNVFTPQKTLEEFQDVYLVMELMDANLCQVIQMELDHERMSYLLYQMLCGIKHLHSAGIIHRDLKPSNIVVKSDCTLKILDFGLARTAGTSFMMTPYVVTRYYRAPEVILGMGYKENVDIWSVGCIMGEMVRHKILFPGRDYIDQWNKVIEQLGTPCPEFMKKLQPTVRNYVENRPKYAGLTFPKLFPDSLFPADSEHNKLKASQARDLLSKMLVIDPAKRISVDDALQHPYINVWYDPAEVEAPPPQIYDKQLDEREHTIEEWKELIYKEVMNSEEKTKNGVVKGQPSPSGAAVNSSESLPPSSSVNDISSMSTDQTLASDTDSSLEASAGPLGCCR

Structure (SMILES)	IC50 [1]	IC50 [2]	IC50 [3]	IC50 [4]	IC50 [5]
COc1cc[nH]c1/C=C1\C(=O)Nc2cccc(C#CC(O)c3ccsc3)c21 (racemic) [BB, rac-(Z)-1,3-Dihydro-4-[3-hydroxy-3-(thiophen-3-yl)-1-propynyl]-3-[(3-methoxy-1H-pyrrol-2-yl)methylene]-2H-indol-2-one]	< 1 µM	< 8 µM	< 12.5 µM	< 20 µM	< 20 µM
COc1cc[nH]c1/C=C1\C(=O)Nc2cccc(C#CC(O)c3cccc(OC)c3OC)c21 (racemic) [EE, rac-(Z)-1,3-Dihydro-4-[3-(2,3-dimethoxyphenyl)-3-hydroxy-1-propynyl]-3-[(3-methoxy-1H-pyrrol-2-yl)methylene]-2H-indol-2-one]	< 1 µM		< 12.5 µM	< 20 µM	
COc1cc[nH]c1/C=C1\C(=O)Nc2cccc(C#CC(O)c3ccccc3)c21 (racemic) [FFF, rac-(Z)-1,3-Dihydro-4-(3-hydroxy-3-phenyl-1-propynyl)-3-[(3-methoxy-1H-pyrrol-2-yl)methylene]-2H-indol-2-one]	< 1 µM		< 12.5 µM	< 20 µM	
COc1ccc(C(O)C#Cc2cccc3c2/C(=C/c2[nH]ccc2OC)C(=O)N3)cc1 (racemic) [H, rac-(Z)-1,3-Dihydro-4-[3-hydroxy-3-(4-methoxyphenyl)-1-propynyl]-3-[(3-methoxy-1H-pyrrol-2-yl)methylene]-2H-indol-2-one]	< 1 µM		< 12.5 µM	< 20 µM	
COc1cc[nH]c1/C=C1\C(=O)Nc2cccc(C#CC(O)c3ccc4c(c3)OCO4)c21 (racemic) [N, rac-(Z)-4-[3-(1,3-benzodioxol-5-yl)-3-hydroxy-1-propynyl]-1,3-dihydro-3-[(3-methoxy-1H-pyrrol-2-yl)methylene]-2H-indol-2-one]	< 1 µM	< 8 µM	< 12.5 µM	< 20 µM	< 20 µM
COc1cc(C(O)C#Cc2cccc3c2/C(=C/c2[nH]ccc2OC)C(=O)N3)ccc1O (racemic) [O, rac-(Z)-1,3-Dihydro-4-[3-hydroxy-3-(4-hydroxy-3-methoxyphenyl)-1-propynyl]-3-[(3-methoxy-1H-pyrrol-2-yl)methylene]-2H-indol-2-one]		< 8 µM	< 12.5 µM	< 20 µM	< 20 µM
COc1cc[nH]c1/C=C1\C(=O)Nc2cccc(C#Cc3cccnc3)c21 [CCC, (Z)-1,3-Dihydro-3-[(3-methoxy-1H-pyrrol-2-yl)methylene]-4-[(3-pyridinyl)ethynyl]-2H-indol-2-one]	< 1 µM		< 12.5 µM	> 20 µM	
COc1cc[nH]c1/C=C1\C(=O)Nc2cccc(C#Cc3ccccc3)c21 [D, (Z)-1,3-Dihydro-4-(phenylethynyl)-3-[(3-methoxy-1H-pyrrol-2-yl)methylene]-2H-indol-2-one]	< 1 µM		< 12.5 µM	20 µM	
COc1ccc(C#Cc2cccc3c2/C(=C/c2[nH]ccc2OC)C(=O)N3)cc1 [G, (Z)-1,3-Dihydro-4-[(4-methoxyphenyl)ethynyl]-3-[(3-methoxy-1H-pyrrol-2-yl)methylene]-2H-indol-2-one]	< 1 µM		< 12.5 µM	< 20 µM	
C#CC(O)c1ccc(OC)c(O)c1 (stereo not drawn) [GG, 3-Hydroxy-3-(3-hydroxy-4-methoxyphenyl)-1-propyne]			< 12.5 µM	< 20 µM	
COc1cc[nH]c1/C=C1\C(=O)Nc2ccc(NC(=O)Cc3cccs3)c(C#Cc3cccnc3)c21 [III, (Z)-N-[2,3-Dihydro-3-[(3-methoxy-1H-pyrrol-2-yl)methylene]-2-oxo-4-[(3-pyridinyl)ethynyl]-1H-indol-5-yl]-2-thiopheneacetamide]			< 12.5 µM	20 µM	

Now from value to compound:

IC50 [1]	IC50 [2]	IC50 [3]	IC50 [4]	IC50 [5]	Structure (SMILES)
< 1 µM	< 8 µM	< 12.5 µM	< 20 µM	20 µM	COc1cc[nH]c1/C=C1\C(=O)Nc2cccc(C#CC(O)c3ccc(N(C)C)cc3)c21 (racemic) [R, rac-(Z)-1,3-Dihydro-4-[3-(4-dimethylaminophenyl)-3-hydroxy-1-propynyl]-3-[(3-methoxy-1H-pyrrol-2-yl)methylene]-2H-indol-2-one]
		< 12.5 µM	< 20 µM		C#CC(O)c1ccc(O)cc1 (stereo not drawn) [P, 3-Hydroxy-3-(4-hydroxyphenyl)-1-propyne]
< 1 µM		< 12.5 µM	20 µM		COc1ccc(/C=C/c2cccc3c2/C(=C/c2[nH]ccc2OC)C(=O)N3)cc1OC [QQQ, 1,3-Dihydro-4-[(E)-2-(3,4-dimethoxyphenyl)-ethenyl]-(Z)-3-[(3-methoxy-1H-pyrrol-2-yl)methylene]-2H-indol-2-one]
< 1 µM		< 12.5 µM	< 20 µM		COc1cc[nH]c1/C=C1\C(=O)Nc2cccc(C#CCOc3ccccc3)c21 [Y, (Z)-1,3-Dihydro-3-[(3-methoxy-1H-pyrrol-2-yl)methylene]-4-(3-phenoxy-1-propynyl)-2H-indol-2-one]
		< 12.5 µM	< 20 µM		C#CC(O)c1cccn1C (stereo not drawn) [Z, 3-Hydroxy-3-(1-methyl-pyrrol-2-yl)-1-propyne]
